Measurements from patent publication US20220153745A1, “DISUBSTITUTED BENZOTHIENYL-PYRROLOTRIAZINES AND THEIR USE AS FGFR KINASE INHIBITORS” (Bayer Intellectual Property GmbH, priority 2011, published 2022).
Counter-ions that a name gives are not always drawn.

Biological target: T1, mTOR (Homo sapiens, UniProt P42345)
T1 construct: human mTOR amino acids from 1360 to 2549; purchased Invitrogen 4753; host or cells: insect cells
Assay: mTOR kinase assay (TR-FRET, for comparative purposes)
Type: biochemical
Settings: mean inhibition at 1 μM test compound, 40 μM ATP

T1 sequence (P42345 1360-2549): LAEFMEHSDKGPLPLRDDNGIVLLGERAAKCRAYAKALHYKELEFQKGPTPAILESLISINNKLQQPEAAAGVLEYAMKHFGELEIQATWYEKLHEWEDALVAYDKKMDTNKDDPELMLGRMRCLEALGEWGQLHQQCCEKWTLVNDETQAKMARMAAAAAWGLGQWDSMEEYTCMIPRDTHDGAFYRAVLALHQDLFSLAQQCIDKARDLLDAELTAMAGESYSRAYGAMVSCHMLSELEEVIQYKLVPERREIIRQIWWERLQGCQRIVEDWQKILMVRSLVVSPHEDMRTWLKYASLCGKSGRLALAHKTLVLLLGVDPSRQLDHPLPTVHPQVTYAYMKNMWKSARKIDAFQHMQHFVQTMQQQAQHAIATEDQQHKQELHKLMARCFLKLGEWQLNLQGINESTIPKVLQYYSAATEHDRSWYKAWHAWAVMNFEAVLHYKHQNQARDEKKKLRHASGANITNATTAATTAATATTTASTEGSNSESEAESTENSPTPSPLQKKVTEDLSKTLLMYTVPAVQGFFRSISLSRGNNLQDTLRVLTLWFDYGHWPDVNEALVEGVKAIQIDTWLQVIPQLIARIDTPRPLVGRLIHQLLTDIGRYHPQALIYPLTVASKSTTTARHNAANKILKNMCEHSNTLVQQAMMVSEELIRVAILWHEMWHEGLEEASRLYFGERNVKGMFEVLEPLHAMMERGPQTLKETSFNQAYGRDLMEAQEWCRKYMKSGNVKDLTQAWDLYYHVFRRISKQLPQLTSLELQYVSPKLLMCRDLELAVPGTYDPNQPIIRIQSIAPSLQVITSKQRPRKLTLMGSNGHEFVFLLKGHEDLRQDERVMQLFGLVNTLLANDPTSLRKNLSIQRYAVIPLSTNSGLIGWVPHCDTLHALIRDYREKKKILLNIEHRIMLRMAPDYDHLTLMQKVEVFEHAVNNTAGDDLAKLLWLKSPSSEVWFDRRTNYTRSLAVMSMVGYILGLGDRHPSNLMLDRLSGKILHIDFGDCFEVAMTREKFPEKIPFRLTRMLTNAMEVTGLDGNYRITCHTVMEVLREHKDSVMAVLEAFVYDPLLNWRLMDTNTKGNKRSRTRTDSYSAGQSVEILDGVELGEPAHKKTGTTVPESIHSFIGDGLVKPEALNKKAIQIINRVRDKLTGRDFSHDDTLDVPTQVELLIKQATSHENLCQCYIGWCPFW

In the case of `COCc1c(-c2cc3cc(C)cc(OC)c3s2)c2c(N)ncnn2c1CN1CCNC(=O)C1.Cl.Cl` [Example 2, 4-{[4-Amino-6-(methoxymethyl)-5-(7-methoxy-5-methyl-1-benzothiophen-2-yl)pyrrolo[2,1-f][1,2,4]triazin-7-yl]methyl}piperazin-2-one dihydrochloride], the “mTOR % inhibition @ 1 μM” value is reported as 7.2%.

Same assay, conditions: read-out: mTOR % inhibition @ 1 μM, mean inhibition at 1 μM test compound, 40 μM ATP

Compared with `COc1cc(C)cc2cc(-c3c(CN4CCCC(O)C4)c(CN4CCNCC4)n4ncnc(N)c34)sc12` (racemic) [Example 40, rac-1-{[4-Amino-5-(7-methoxy-5-methyl-1-benzothiophen-2-yl)-7-(piperazin-1-ylmethyl)pyrrolo[2,1-f][1,2,4]triazin-6-yl]methyl}piperidin-3-ol trihydrochloride], `COc1cc(C)cc2cc(-c3c(CO)c(CN4CCNCC4)n4ncnc(N)c34)sc12` [Example 12, [4-Amino-5-(7-methoxy-5-methyl-1-benzothiophen-2-yl)-7-(piperazin-1-ylmethyl)pyrrolo[2,1-f]-[1,2,4]triazin-6-yl]methanol bis(formiate)] is higher in inhibition at 1 µM: 0.1% for the first, 25.8% for the second.

First: COCc1c(-c2cc3cc(C)cc(OC)c3s2)c2c(N)ncnn2c1CN1CCNC(=O)C1 [Example 1, 4-{[4-Amino-6-(methoxymethyl)-5-(7-methoxy-5-methyl-1-benzothiophen-2-yl)pyrrolo[2,1-f]-[1,2,4]triazin-7-yl]methyl}piperazin-2-one]
Second: CCOCc1c(-c2cc3cc(C)cc(OC)c3s2)c2c(N)ncnn2c1CN1CCNC(=O)C1 [Example 5, 4-{[4-Amino-6-(ethoxymethyl)-5-(7-methoxy-5-methyl-1-benzothiophen-2-yl)pyrrolo[2,1-f][1,2,4]-triazin-7-yl]methyl}piperazin-2-one]
The inhibition at 1 µM of the first is lower: 8.7% for the first, 9.7% for the second.

Going from `CCOCc1c(-c2cc3cc(C)cc(OC)c3s2)c2c(N)ncnn2c1CN1CCNC(=O)C1` [Example 6, 4-{[4-Amino-6-(ethoxymethyl)-5-(7-methoxy-5-methyl-1-benzothiophen-2-yl)pyrrolo[2,1-f][1,2,4]-triazin-7-yl]methyl}piperazin-2-one dihydrochloride] to `CCOCc1c(-c2cc3cc(C)cc(OC)c3s2)c2c(N)ncnn2c1CN1CCNCC1` [Example 19, 6-(Ethoxymethyl)-5-(7-methoxy-5-methyl-1-benzothiophen-2-yl)-7-(piperazin-1-ylmethyl)pyrrolo[2,1-f][1,2,4]triazin-4-amine dihydrochloride], the inhibition at 1 µM rises from 0.3% to 17.6%.

Compared with `CCOCc1c(-c2cc3cc(C)cc(OC)c3s2)c2c(N)ncnn2c1CN[C@@H]1CCNC1=O` [Example 7, (3R)-3-({[4-Amino-6-(ethoxymethyl)-5-(7-methoxy-5-methyl-1-benzothiophen-2-yl)pyrrolo[2,1-f]-[1,2,4]triazin-7-yl]methyl}amino)pyrrolidin-2-one dihydrochloride], `CCOCc1c(-c2cc3cc(C)cc(OC)c3s2)c2c(N)ncnn2c1CN1CCOCC1` [Example 10, 6-(Ethoxymethyl)-5-(7-methoxy-5-methyl-1-benzothiophen-2-yl)-7-(morpholin-4-ylmethyl)pyrrolo[2,1-f][1,2,4]triazin-4-amine] is higher in inhibition at 1 µM: 3.1% for the first, 6% for the second.

First: CCOCc1c(-c2cc3cc(C)cc(OC)c3s2)c2c(N)ncnn2c1CN[C@@H]1CCNC1=O [Example 8, (3R)-3-({[4-Amino-6-(ethoxymethyl)-5-(7-methoxy-5-methyl-1-benzothiophen-2-yl)pyrrolo[2,1-f]-[1,2,4]triazin-7-yl]methyl}amino)pyrrolidin-2-one]
Second: CCOCc1c(-c2cc3cc(C)cc(OC)c3s2)c2c(N)ncnn2c1CN1CCN(C(C)=O)CC1 [Example 20, 1-(4-{[4-Amino-6-(ethoxymethyl)-5-(7-methoxy-5-methyl-1-benzothiophen-2-yl)pyrrolo[2,1-f]-[1,2,4]triazin-7-yl]methyl}piperazin-1-yl)ethanone]
The inhibition at 1 µM of the first is lower: 7.8% for the first, 31.3% for the second.

Compared with `COCc1c(-c2cc3cc(C)cc(OC)c3s2)c2c(N)ncnn2c1CN1CCNCC1` [Example 17, 6-(Methoxymethyl)-5-(7-methoxy-5-methyl-1-benzothiophen-2-yl)-7-(piperazin-1-ylmethyl)pyrrolo[2,1-f][1,2,4]triazin-4-amine formiate], `COc1cc(C)cc2cc(-c3c(COC(C)C)c(CN4CCNCC4)n4ncnc(N)c34)sc12` [Example 27, 6-(Isopropoxymethyl)-5-(7-methoxy-5-methyl-1-benzothiophen-2-yl)-7-(piperazin-1-ylmethyl)pyrrolo[2,1-f][1,2,4]triazin-4-amine formiate] is lower in inhibition at 1 µM: 6.7% for the first, 5.9% for the second.

Going from `CCCCOCc1c(-c2cc3cc(C)cc(OC)c3s2)c2c(N)ncnn2c1CN1CCNCC1` [Example 23, 6-(Butoxymethyl)-5-(7-methoxy-5-methyl-1-benzothiophen-2-yl)-7-(piperazin-1-ylmethyl)pyrrolo[2,1-f][1,2,4]triazin-4-amine formiate] to `CCCOCc1c(-c2cc3cc(C)cc(OC)c3s2)c2c(N)ncnn2c1CN1CCNCC1` [Example 24, 5-(7-Methoxy-5-methyl-1-benzothiophen-2-yl)-7-(piperazin-1-ylmethyl)-6-(propoxymethyl)pyrrolo[2,1-f][1,2,4]triazin-4-amine bis(formiate)], the inhibition at 1 µM falls from 11.6% to 6.3%.

Going from `COc1cc(C)cc2cc(-c3c(COCC4CC4)c(CN4CCNCC4)n4ncnc(N)c34)sc12` [Example 25, 6-[(Cyclopropylmethoxy)methyl]-5-(7-methoxy-5-methyl-1-benzothiophen-2-yl)-7-(piperazin-1-ylmethyl)pyrrolo[2,1-f][1,2,4]triazin-4-amine bis(formiate)] to `COc1cc(C)cc2cc(-c3c(COCC(=O)O)c(CN4CCNCC4)n4ncnc(N)c34)sc12` [Example 32, {[4-Amino-5-(7-methoxy-5-methyl-1-benzothiophen-2-yl)-7-(piperazin-1-ylmethyl)pyrrolo[2,1-f][1,2,4]triazin-6-yl]methoxy}acetic acid], the inhibition at 1 µM falls from 3.5% to 1.6%.

Going from `COc1cc(C)cc2cc(-c3c(COCC(F)(F)F)c(CN4CCNCC4)n4ncnc(N)c34)sc12` [Example 29, 5-(7-Methoxy-5-methyl-1-benzothiophen-2-yl)-7-(piperazin-1-ylmethyl)-6-[(2,2,2-trifluoroethoxy)methyl]pyrrolo[2,1-f][1,2,4]triazin-4-amine formiate] to `COc1cc(C)cc2cc(-c3c(COCC(N)=O)c(CN4CCNCC4)n4ncnc(N)c34)sc12` [Example 33, 2-{[4-Amino-5-(7-methoxy-5-methyl-1-benzothiophen-2-yl)-7-(piperazin-1-ylmethyl)pyrrolo[2,1-f][1,2,4]triazin-6-yl]methoxy}acetamide], the inhibition at 1 µM falls from 28.5% to 0.9%.

Going from `COC(=O)COCc1c(-c2cc3cc(C)cc(OC)c3s2)c2c(N)ncnn2c1CN1CCNCC1` [Example 31, Methyl {[4-amino-5-(7-methoxy-5-methyl-1-benzothiophen-2-yl)-7-(piperazin-1-ylmethyl)pyrrolo[2,1-f][1,2,4]triazin-6-yl]methoxy}acetate] to `CNCc1c(-c2cc3cc(C)cc(OC)c3s2)c2c(N)ncnn2c1CN1CCNCC1` [Example 36, 5-(7-Methoxy-5-methyl-1-benzothiophen-2-yl)-6-[(methylamino)methyl]-7-(piperazin-1-ylmethyl)pyrrolo[2,1-f][1,2,4]triazin-4-amine trihydrochloride], the inhibition at 1 µM falls from 16.3% to 14.4%.

First: COc1cc(C)cc2cc(-c3c(COc4ccccc4)c(CN4CCNCC4)n4ncnc(N)c34)sc12 [Example 35, 5-(7-Methoxy-5-methyl-1-benzothiophen-2-yl)-6-(phenoxymethyl)-7-(piperazin-1-ylmethyl)pyrrolo[2,1-f][1,2,4]triazin-4-amine bis(formiate)]
Second: COc1cc(C)cc2cc(-c3c(CN(C)C)c(CN4CCNCC4)n4ncnc(N)c34)sc12 [Example 37, 6-[(Dimethylamino)methyl]-5-(7-methoxy-5-methyl-1-benzothiophen-2-yl)-7-(piperazin-1-ylmethyl)pyrrolo[2,1-f][1,2,4]triazin-4-amine trihydrochloride]
The inhibition at 1 µM of the first is lower: 1.4% for the first, 8.6% for the second.

First: CCN(CC)Cc1c(-c2cc3cc(C)cc(OC)c3s2)c2c(N)ncnn2c1CN1CCNCC1 [Example 43, 6-[(Diethylamino)methyl]-5-(7-methoxy-5-methyl-1-benzothiophen-2-yl)-7-(piperazin-1-ylmethyl)pyrrolo[2,1-f][1,2,4]triazin-4-amine trihydrochloride]
Second: COc1cc(C)cc2cc(-c3c(CNCC(=O)O)c(CN4CCNCC4)n4ncnc(N)c34)sc12 [Example 48, N-{[4-Amino-5-(7-methoxy-5-methyl-1-benzothiophen-2-yl)-7-(piperazin-1-ylmethyl)pyrrolo[2,1-f]-[1,2,4]triazin-6-yl]methyl}glycine trihydrochloride]
The inhibition at 1 µM of the first is higher: 10.1% for the first, 4.1% for the second.

Going from `COc1cc(C)cc2cc(-c3c(CN4CCNC(=O)C4)c(CN4CCN(C=O)CC4)n4ncnc(N)c34)sc12` [Example 58, 4-({4-Amino-5-(7-methoxy-5-methyl-1-benzothiophen-2-yl)-6-[(3-oxopiperazin-1-yl)methyl]pyrrolo[2,1-f][1,2,4]triazin-7-yl}methyl)piperazine-1-carbaldehyde formiate] to `COc1cc(C)cc2cc(-c3c(CNC(C)=O)c(CN4CCN(C=O)CC4)n4ncnc(N)c34)sc12` [Example 65, N-({4-Amino-7-[(4-formylpiperazin-1-yl)methyl]-5-(7-methoxy-5-methyl-1-benzothiophen-2-yl)pyrrolo[2,1-f][1,2,4]triazin-6-yl}methyl)acetamide formiate], the inhibition at 1 µM rises from 4% to 13.9%.

Going from `COc1cc(C)cc2cc(-c3c(CNC(C)=O)c(CN4CCN(C(C)=O)CC4)n4ncnc(N)c34)sc12` [Example 66, N-({7-[(4-Acetylpiperazin-1-yl)methyl]-4-amino-5-(7-methoxy-5-methyl-1-benzothiophen-2-yl)pyrrolo[2,1-f][1,2,4]triazin-6-yl}methyl)acetamide] to `COCc1c(-c2cc3cc(C)cc(OC)c3s2)c2c(N)ncnn2c1C#N` [Example 69, 4-Amino-6-(methoxymethyl)-5-(7-methoxy-5-methyl-1-benzothiophen-2-yl)pyrrolo[2,1-f][1,2,4]-triazine-7-carbonitrile], the inhibition at 1 µM falls from 15.8% to 8.7%.
